Reference: PubChem BioAssay AID2060883 (Molecular Pharmacology Branch, DTP, NCI, 2025)

Test system: 843782-103-R-J1-PDC complex spheroid viability
Assay: Anticancer human tumor 843782-103-R-J1-PDC patient-derived lung adenocarcinoma cell line growth inhibition [RAS]
Conditions: for IC50: curve of first compound; for viability, T/C: stronger effect = lower value
Procedure, shortened: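 Tumour cells grown as complex spheroids with HUVEC endothelial cells and mesenchymal stem cells, treated with RAS pathway inhibitor combinations. Each agent spans half-log steps from near clinical Cmax, or 10 microM where Cmax is unknown.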
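Further: viability read after seven days of compound exposure.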

- IC50 (second compound 0.000949 µM): > 1000 nM
- IC50 (second compound 0.003 µM): > 1000 nM
- IC50 (second compound 0.00949 µM): < 3.16 nM
- IC50 (second compound 0.03 µM): < 3.16 nM
- IC50 (second compound 0.0949 µM): < 3.16 nM
- IC50 (second compound 0.3 µM): < 3.16 nM
SMILES: C=CC(=O)N1CCN(c2nc(OCC3CCCN3C)nc3c(F)c(-c4nc(N)cc(C)c4C(F)(F)F)c(Cl)cc23)C(C)C1 (configuration not stated) + CCn1c(-c2cc(N3CCN(C)CC3)cnc2C(C)OC)c2c3cc(ccc31)-c1csc(n1)CC(NC(=O)C1CC1C)C(=O)N1CCCC(N1)C(=O)OCC(C)(C)C2
- viability, T/C (second compound 0.000949 µM, first compound 0.00316 µM): 64.2%
- viability, T/C (second compound 0.000949 µM, first compound 0.01 µM): 64.9%
- viability, T/C (second compound 0.000949 µM, first compound 0.0316 µM): 62.9%
- viability, T/C (second compound 0.000949 µM, first compound 0.1 µM): 66.8%
- viability, T/C (second compound 0.000949 µM, first compound 0.316 µM): 71.8%
- viability, T/C (second compound 0.000949 µM, first compound 1 µM): 67.1%
- viability, T/C (second compound 0.003 µM, first compound 0.00316 µM): 57.2%
- viability, T/C (second compound 0.003 µM, first compound 0.01 µM): 56.5%
- viability, T/C (second compound 0.003 µM, first compound 0.0316 µM): 55%
- viability, T/C (second compound 0.003 µM, first compound 0.1 µM): 55.4%
- viability, T/C (second compound 0.003 µM, first compound 0.316 µM): 55.2%
- viability, T/C (second compound 0.003 µM, first compound 1 µM): 60.8%
- viability, T/C (second compound 0.00949 µM, first compound 0.00316 µM): 33.6%
- viability, T/C (second compound 0.00949 µM, first compound 0.01 µM): 38.1%
- viability, T/C (second compound 0.00949 µM, first compound 0.0316 µM): 36.3%
- viability, T/C (second compound 0.00949 µM, first compound 0.1 µM): 37.1%
- viability, T/C (second compound 0.00949 µM, first compound 0.316 µM): 37%
- viability, T/C (second compound 0.00949 µM, first compound 1 µM): 35.8%
- viability, T/C (second compound 0.03 µM, first compound 0.00316 µM): 20.3%
- viability, T/C (second compound 0.03 µM, first compound 0.01 µM): 23.1%
- viability, T/C (second compound 0.03 µM, first compound 0.0316 µM): 19.3%
- viability, T/C (second compound 0.03 µM, first compound 0.1 µM): 23.8%
- viability, T/C (second compound 0.03 µM, first compound 0.316 µM): 22.7%
- viability, T/C (second compound 0.03 µM, first compound 1 µM): 21.6%
- viability, T/C (second compound 0.0949 µM, first compound 0.00316 µM): 15.4%
- viability, T/C (second compound 0.0949 µM, first compound 0.01 µM): 13.7%
- viability, T/C (second compound 0.0949 µM, first compound 0.0316 µM): 16.6%
- viability, T/C (second compound 0.0949 µM, first compound 0.1 µM): 20%
- viability, T/C (second compound 0.0949 µM, first compound 0.316 µM): 17.4%
- viability, T/C (second compound 0.0949 µM, first compound 1 µM): 16.4%
- viability, T/C (second compound 0.3 µM, first compound 0.00316 µM): 14.6%
- viability, T/C (second compound 0.3 µM, first compound 0.01 µM): 14.5%
- viability, T/C (second compound 0.3 µM, first compound 0.0316 µM): 14.8%
- viability, T/C (second compound 0.3 µM, first compound 0.1 µM): 14.9%
- viability, T/C (second compound 0.3 µM, first compound 0.316 µM): 14.5%
- viability, T/C (second compound 0.3 µM, first compound 1 µM): 13.4%
